Results as given in patent US20130178453A1, “Cannabinoid Agonists” (priority 2010, published 2013).
Read-outs that look alike come from different tables or passages of the source.

Tests used:
hCB2 [1] = molecular target: T1, hCB2 (Homo sapiens, UniProt P34972); assay: hCB2 cAMP agonist assay (HEK-293 cells); type: cell-based
Description: (§1) cDNA expression clones for human CB 1 (hCB1, Genbank Accession No. AY225225) and human CB2 (hCB2, Genbank Accession No. AY242132) expressed in vector pcDNA3.1+ were purchased from UMR cDNA Resource Center, Rolla, Mo. (Clone ID CNR01L000 for hCB1; CNR0200000 for hCB2).
cAMP assays were performed in HEK-293 cells stably expressing human CB 1 or CB2 receptors. […] Cells suspensions were centrifuged and the cells were washed once with PBS, were centrifuged again, and the cells were resuspended in HBSS (Hank's Balanced Salt Solution, Cellgro, Cat #21-022-CV) solution containing 10 mM HEPES and 0.1% fatty acid free BSA (Sigma, Cat #A0281). Cell suspensions were prepared at 1,500,000 cells per mL. Stock solutions of test substances (10 mM) in DMSO were diluted to 1 mM using 30% DMSO as diluent. Test substances of solutions (1 mM) were further diluted down to 3× of final assay concentrations in the above HBSS buffer containing 0.1% BSA in the presence of 90 uM forskolin (Sigma Cat#F6886). To perform the assay, 20 μL of cell suspension (1,500,000 cells/mL) were added to each well in 96 well plate and treated with 10 μL test substance solution diluted as described above. Cells and compounds were incubated at 37° C. for 30 minutes. Cells were lysed and cAMP concentration was measured using DiscoveRx-XS+ cAMP assay kit (DiscoveRx Corporation Ltd., Fremont, Calif., USA, Cat #90-0075-03), following the manufacturer's protocol. GraphPad Prism software was used to calculate EC50 values using sigmoidal dose response curve fitting. The maximal amount of cAMP produced by forskolin was defined as 100%.

hCB1 [2] = molecular target: T2, hCB1 (Homo sapiens, UniProt P21554); assay: hCB1 radioligand binding assay ([3H]-CP 55,940 displacement); settings: hCB1 IC50 (CP displ, nM, HEK), HEK membranes
T2 sequence (P21554 whole entry): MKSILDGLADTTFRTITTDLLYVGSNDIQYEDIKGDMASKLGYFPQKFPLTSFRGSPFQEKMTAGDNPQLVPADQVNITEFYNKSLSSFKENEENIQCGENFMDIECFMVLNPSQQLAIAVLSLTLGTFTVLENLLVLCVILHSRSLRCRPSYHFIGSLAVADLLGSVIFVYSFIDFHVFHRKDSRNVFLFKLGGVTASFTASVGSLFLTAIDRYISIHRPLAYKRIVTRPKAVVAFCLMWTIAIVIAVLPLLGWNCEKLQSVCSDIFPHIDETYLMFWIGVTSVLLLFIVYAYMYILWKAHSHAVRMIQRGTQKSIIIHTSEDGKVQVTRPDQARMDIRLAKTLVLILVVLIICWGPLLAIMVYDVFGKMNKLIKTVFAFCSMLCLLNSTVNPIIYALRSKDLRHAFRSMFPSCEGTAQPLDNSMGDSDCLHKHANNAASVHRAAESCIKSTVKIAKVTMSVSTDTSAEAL
Description: as §1
Stable, HEK-293-derived cell lines that recombinantly express hCB1 or hCB2 were established. In brief, the clone hCB1 (CNR1L) or hCB2 (CNR2) was transfected into human embryonic kidney cells (HEK-293) using Lipofectamine 2000 (Gibco, Cat#11668-019) according to the manufacturer's protocol. Transfected clones were isolated by single colony purification and clones were screened for receptor expression using a whole cell, ^3H—CP 55,940 radioligand binding assay. HEK-293 stable cells were maintained in Dulbecco's modified Eagles medium (DMEM) containing 10% fetal bovine serum, 2 mM L-glutamine and 0.5 mg/mL G-418.
(§2) Membranes were isolated from transfected cells as follows. Monolayers of cultured cells were washed twice with phosphate-buffered saline (PBS). Cells were scraped into 20 mM HEPES, pH 7.4, 10 mM EDTA containing complete cocktail protease inhibitors (Roche, Catalog #11 697 498 001), and were homogenized by an electric-powered mechanical probe homogenizer (Omni GLH; probe G7-195S) for 40 seconds at 7000 rpm. Homogenates were centrifuged 10 minutes at 1000×g at 4° C. The supernatant was collected and was centrifuged for 1 hour at 40,000×g. The supernatant was then decanted and the resulting pellet was re-suspended in 20 mM HEPES, pH 7.4, 5 mM MgCl2, 1 mM EDTA, 10% sucrose with complete cocktail protease inhibitors. Protein concentration of membrane suspensions were measured by Bradford Protein Assay using bovine serum albumin as the standard (BioRad catalog #500-0006). Protein concentrations of membrane suspensions were adjusted with the final buffer in the range of 5 to 10 mg/mL and were stored at −80° C. until further use.
Radioligand binding assays were performed by incubating membranes (2-10 μg protein) prepared from HEK-293 cells expressing recombinant human cannabinoid receptors, CB 1 or CB2, at room temperature with 0.5 nM cannabinoid receptor agonist, [^3H]-CP 55,940 (Perkin Elmer, catalog #NET 1051) in 0.2 mL of binding buffer (50 mM Tris-HCl, pH 7.5, 5 mM MgCl2, 2.5 mM EDTA) and 0.1% fatty acid free bovine serum albumin (Sigma Cat. #A0821) for 90 minutes. A rapid filtration technique using Millipore FB filter plates (Catalog #MADVNOB) and filtration apparatus (Millipore system Catalog MAVM0960R) with vacuum aspiration was used to harvest and rinse labeled membranes (8 times with 0.2 mL of chilled binding buffer). The radioactivity bound to the filters was counted with 0.05 mL of liquid scintillant (UltraGold MV, PerkinElmer catalog #6013159) in a scintillation counter (Perkin Elmer Microbeta instrument). Nonspecific binding was determined in the presence of unlabeled 1 μM CP 55,940 (Sigma Aldrich, catalog #C1112). Binding data were analyzed using GraphPad Prism (GraphPad Software, Inc. San Diego, Calif.).

hCB1 [3] = molecular target: T2, hCB1; assay: hCB1 cAMP agonist assay (HEK-293 cells); type: cell-based
hCB2 [4] = molecular target: T1, hCB2; assay: hCB2 GTPγS agonist assay (HEK-293 membranes); type: biochemical
Description: as §1
as §2, with “Cells were scraped into 20 mM HEPES, pH 7.4, 10 mM EDTA containing complete cocktail protease inhibitors (Roche, Catalog #11 697 498 001), and were homogenized by an electric-powered mechanical probe homogenizer (Omni GLH; probe G7-195S) for 40 seconds at 7000 rpm.” left out
^35S GTPγS binding assays were performed by incubating recombinant cell membranes prepared above (5 μg) in the presence of scintillation proximity assay beads (SPA beads, Catalog #RPNQ0252 GE Healthcare, Buckinghamshire, England) in GTPγS binding buffer [50 mM HEPES (pH 7.4), 100 mM NaCl, 5 mM MgCl2, 0.001% saponin (Sigma catalog #S4521)] supplemented with 20 uM GDP (Sigma catalog #G7127) in the presence or absence of test compound. The reaction was carried out in 96-well microplates with 0.1 nM [^35S]GTPγS (specific activity=1250 Ci/mmol; Perkin Elmer catalog #NEG030X250UC) in a final volume of 100 μL. After a 90 min room temperature incubation, the reaction was analyzed using a scintillation counter (Perkin Elmer Microbeta instrument). Binding data were analyzed using GraphPad Prism.

hCB2 [5] = molecular target: T1, hCB2; assay: hCB2 radioligand binding assay ([3H]-CP 55,940 displacement); settings: hCB2 IC50 (CP displ, nM, HEK), HEK membranes
Description: as §1
as §2, with “Cells were scraped into 20 mM HEPES, pH 7.4, 10 mM EDTA containing complete cocktail protease inhibitors (Roche, Catalog #11 697 498 001), and were homogenized by an electric-powered mechanical probe homogenizer (Omni GLH; probe G7-195S) for 40 seconds at 7000 rpm.” left out
A rapid filtration technique using Millipore FB filter plates (Catalog #MADVNOB) and filtration apparatus (Millipore system Catalog MAVM0960R) with vacuum aspiration was used to harvest and rinse labeled membranes (8 times with 0.2 mL of chilled binding buffer). […] Binding data were analyzed using GraphPad Prism (GraphPad Software, Inc. San Diego, Calif.).

[6] = cAMP agonist, HEK, 96-well, read-out: hCB2 EC50 (cAMP ag, nM, HEK (96-well))
[7] = cAMP agonist, HEK, 96-well, read-out: hCB1 EC50 (cAMP ag, nM, HEK (96-well))
[8] = GTPγS agonist, HEK membranes, read-out: hCB2 EC50 (GTPyS ag, nM, HEK)

T1 sequence (P34972 whole entry): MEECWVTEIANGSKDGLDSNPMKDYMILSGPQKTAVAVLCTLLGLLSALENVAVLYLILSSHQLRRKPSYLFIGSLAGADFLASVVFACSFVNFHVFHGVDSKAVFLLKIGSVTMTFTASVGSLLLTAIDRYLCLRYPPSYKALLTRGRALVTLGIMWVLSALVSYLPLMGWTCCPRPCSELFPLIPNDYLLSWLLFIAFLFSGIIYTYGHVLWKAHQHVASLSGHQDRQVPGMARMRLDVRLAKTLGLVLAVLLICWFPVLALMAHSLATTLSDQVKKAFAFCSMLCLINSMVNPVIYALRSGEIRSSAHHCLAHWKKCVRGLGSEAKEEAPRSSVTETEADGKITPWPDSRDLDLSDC

| Compound | EC50 (hCB2 [1]; [6]) [nM] | IC50 (hCB1 [2]) [nM] | EC50 (hCB1 [3]; [7]) [nM] | EC50 (hCB2 [4]; [8]) [nM] | IC50 (hCB2 [5]) [nM] | EC50 (hCB2 [1]) [nM] | hCB1 EC50 (cAMP ag, nM, HEK (96-well)) (hCB1 [3]; cAMP agonist, HEK, 96-well) | EC50 (hCB2 [4]) [nM] | EC50 (hCB1 [3]) [nM] | hCB1 EC50 (cAMP ag, nM HEK (24-well)) (hCB1 [3]; cAMP agonist, HEK, 24-well) |
| --- | --- | --- | --- | --- | --- | --- | --- | --- | --- | --- |
| CCn1c(C(=O)c2c(C)n(CCN3CCOC3=O)c3ccccc23)cc2ccsc21 [Compound I-25] | < 100 | > 10000 | 1000 to 10000 | < 100 | < 100 |  |  |  |  |  |
| CCCn1cc(C(=O)c2cc3ccsc3n2CC)c2cnccc21 [Compound I-22] |  | 1000 to 10000 |  |  | 100 to 1000 | < 100 | NS (“Not Significant,” which means less than 30% agonist activity when compared to the positive control) | 100 to 1000 |  |  |
| CCCn1c(C(=O)c2cn(C)c3ccccc23)cc2ccsc21 [Compound I-47] |  | 100 to 1000 | 100 to 1000 |  | < 100 | < 100 |  | 100 to 1000 |  |  |
| CCCn1cc(C(=O)c2cc3ccsc3n2CC)c2ccncc21 [Compound I-23] |  | 1000 to 10000 |  |  | < 100 | < 100 | NS (“Not Significant,” which means less than 30% agonist activity when compared to the positive control) | 100 to 1000 |  |  |
| CCCn1c(C(=O)c2c(C)n(S(=O)(=O)CC)c3ccccc23)cc2ccsc21 [Compound I-67] | 100 to 1000 | > 10000 |  |  | 100 to 1000 |  | NS (“Not Significant,” which means less than 30% agonist activity when compared to the positive control) |  |  |  |
| CCn1c(C(=O)c2c(C)n(CC3CCOCC3)c3ccccc23)cc2ccsc21 [Compound I-17] |  | 100 to 1000 |  |  | < 100 | < 100 |  | < 100 | 100 to 1000 |  |
| CCn1c(C(=O)c2c(C)n(CCCNS(C)(=O)=O)c3ccccc23)cc2ccsc21 [Compound I-19] | < 100 | 1000 to 10000 |  | < 100 | < 100 |  | NS (“Not Significant,” which means less than 30% agonist activity when compared to the positive control) |  |  |  |
| C=CCn1cc(C(=O)c2cc3ccsc3n2CC)c2cnccc21 [Compound I-21] |  | > 10000 |  |  | 100 to 1000 | 1000 to 10000 |  | 100 to 1000 | 100 to 1000 |  |
| CCCn1c(C(=O)c2c(C)[nH]c3ccccc23)cc2ccsc21 [Compound I-51] | 100 to 1000 | > 10000 |  |  | 100 to 1000 |  | NS (“Not Significant,” which means less than 30% agonist activity when compared to the positive control) |  |  |  |
| CCCn1c(C)c(C(=O)c2cc3cc(Cl)sc3[nH]2)c2c1CCCC2 [Compound I-76] | 100 to 1000 | > 10000 |  | 100 to 1000 | 100 to 1000 |  | NS (“Not Significant,” which means less than 30% agonist activity when compared to the positive control) |  |  |  |
| CCCn1c(C)c(C(=O)c2cc3ccsc3n2CCC)c2ccccc21 [Compound I-78] |  | 1000 to 10000 |  |  | < 100 | < 100 | NS (“Not Significant,” which means less than 30% agonist activity when compared to the positive control) | < 100 |  | NS (“Not Significant,” which means less than 30% agonist activity when compared to the positive control) |
| CCOC(=O)CCn1c(C)c(C(=O)c2cc3ccsc3n2CC)c2ccccc21 [Compound I-26] | < 100 | > 10000 |  |  | 100 to 1000 |  | NS (“Not Significant,” which means less than 30% agonist activity when compared to the positive control) |  |  |  |
| CCCn1c(C)c(C(=O)c2c(C)[nH]c3sccc23)c2ccccc21 [Compound I-6] |  | > 10000 |  |  | > 10000 |  | NS (“Not Significant,” which means less than 30% agonist activity when compared to the positive control) |  |  |  |
| CCCn1c(C(=O)c2c(C)[nH]c3ccc(C)cc23)cc2ccsc21 [Compound I-68] |  | > 10000 |  |  | 1000 to 10000 |  | NS (“Not Significant,” which means less than 30% agonist activity when compared to the positive control) |  |  |  |
